From patent publication US20230248638A1, “A PERSONAL CARE COMPOSITION COMPRISING ATRACTYLENOLIDE-I OR A SOURCE THEREOF” (Conopco, Inc., d/b/a UNILEVER, priority 2020, published 2023)

Test system: Normal human epidermal melanocytes (NHEM)
Assay: Melanin content quantification in melanocytes
Type: cell-based
Settings: 72 hours treatment, concentration as in Treatment column, melanin normalized to relative cell viability
Protocol: Normal human epidermal melanocytes (NHEM) (Biocell, Xi'an, China) were grown in melanocyte growth medium (MGM, Promocell, Germany) with human melanocyte growth supplement (Promocell, Germany). NHEM cells were seeded at a density of 4×10^4 cells in 500 μL MGM/well in a 24-well plate and incubated for 48 hours in an incubator (Thermo Scientific, Model 3111) at 37° C. with 5% CO2. After 48 hours, media was replaced with fresh media containing test samples (as per Table 1) for the following 72 hours.
After CCK8 absorbance readings were obtained, cells were lysed by lysis buffer at 60° C. for 1 hr. Then, 50 μL cell lysate was transferred to a new 96-well plate and absorbance was measured at 405 nm using TECAN plate reader. Serial dilutions of pure melanin were prepared as references.
The melanin content was calculated from the melanin standard curve. The melanin concentrations (μg/mL) were then normalized to the relative cell viability. The melanin inhibition rates were then calculated using the following equation: […]

| SMILES | Melanin inhibition rate (% inhibition) |
| --- | --- |
| C=C1CCC[C@]2(C)C=C3OC(=O)C(C)=C3C[C@@H]12 [D, Atractylenolide -1] | 7.8 ± 2.80 |
| CCCCCCC(O)CCCCCCCCCCC(=O)O (centres unmarked) [Example B, 12 hydroxystearic acid] | 5.6 ± 3.03 |
